Measurements as given in paper PMC11721541 (Journal of Lipid Research, 2024).

Legend:
[1] = target: T1, human lipin 1α (Homo sapiens, UniProt Q14693); experiment: PAP assay, human lipin 1α; type: biochemical; conditions: for IC50: unphosphorylated, from E. coli, PA 2.4 mol %
T1 construct: His6 (C); made in house; host or cells: E. coli Rosetta2(DE3)pLysS, plasmid pGH322 (pET-28b(+) derivative)
T1 sequence (Q14693 1-890): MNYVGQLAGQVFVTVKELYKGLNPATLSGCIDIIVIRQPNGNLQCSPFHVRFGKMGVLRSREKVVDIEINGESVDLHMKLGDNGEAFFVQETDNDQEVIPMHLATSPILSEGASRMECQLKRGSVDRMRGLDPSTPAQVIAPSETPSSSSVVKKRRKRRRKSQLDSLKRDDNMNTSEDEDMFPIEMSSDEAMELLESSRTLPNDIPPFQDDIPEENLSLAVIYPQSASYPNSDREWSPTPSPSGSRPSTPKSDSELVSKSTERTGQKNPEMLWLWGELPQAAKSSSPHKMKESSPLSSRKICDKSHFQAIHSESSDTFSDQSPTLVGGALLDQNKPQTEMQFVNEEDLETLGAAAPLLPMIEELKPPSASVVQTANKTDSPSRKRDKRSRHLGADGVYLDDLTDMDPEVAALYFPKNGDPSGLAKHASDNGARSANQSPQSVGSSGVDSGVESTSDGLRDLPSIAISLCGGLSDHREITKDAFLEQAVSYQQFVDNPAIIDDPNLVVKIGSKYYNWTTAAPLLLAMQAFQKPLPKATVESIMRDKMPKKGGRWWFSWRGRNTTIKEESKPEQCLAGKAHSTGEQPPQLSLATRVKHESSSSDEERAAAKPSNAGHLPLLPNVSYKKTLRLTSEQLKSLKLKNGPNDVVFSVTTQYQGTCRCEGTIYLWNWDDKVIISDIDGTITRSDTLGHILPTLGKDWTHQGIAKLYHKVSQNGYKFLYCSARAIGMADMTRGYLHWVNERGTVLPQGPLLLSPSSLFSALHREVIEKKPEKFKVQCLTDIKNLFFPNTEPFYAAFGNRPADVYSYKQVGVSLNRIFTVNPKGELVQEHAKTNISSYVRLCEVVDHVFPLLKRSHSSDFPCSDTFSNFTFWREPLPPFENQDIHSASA
Description: (§1) PA dissolved in chloroform was dried in vacuo for 1 h. The dried PA was suspended in Triton X-100 to prepare Triton X-100/PA-mixed micelles ([88]). The mole percent of PA in the Triton X-100/PA-mixed micelle was calculated using the following formula: mol %PA = 100 × [PA (molar)]/([PA (molar)] + [Triton X-100 (molar)]). The total PA concentration in the Triton X-100/PA-mixed micelles was kept below 15 mol% to ensure that the structure of the PA-mixed micelles was similar to that of pure Triton X-100 micelles ([89], [90]).
(§2) PAP activity was measured at 30°C for 20 min by following the release of water-soluble ^32Pi from chloroform-soluble [^32P]PA (5,000–10,000 cpm/nmol) ([1], [88]). [^32P]PA was enzymatically synthesized from 1, 2-dioleoyl DAG and [γ-^32P]ATP with E. coli DAG kinase ([88]). Pah1-CC PAP activity was measured by following the formation of Pi from unlabeled PA using the malachite green-molybdate reagent ([4], [91]). The reaction mixture in a total volume of 100 μl contained 50 mM Tris-HCl (pH 7.5), 1 mM MgCl2, 10 mM 2-mercaptoethanol, 0.2 mM PA, 2 mM Triton X-100, and 50 ng purified enzyme. The enzyme assays were conducted in triplicate; the reactions were linear with time and protein concentration.
(§3) Each of the isoforms was heterologously expressed in E. coli, which allowed for their isolation in the unphosphorylated state ([4]).

[2] = target: T2, human lipin 1γ (Homo sapiens, UniProt Q14693); experiment: PAP assay, human lipin 1γ; type: biochemical; conditions: unphosphorylated, from E. coli; PA 2.4 mol %
T2 construct: His6 (C); made in house; host or cells: E. coli Rosetta2(DE3)pLysS, plasmid pGH321 (pET-28b(+) derivative)
T2 sequence (Q14693 1-916 isoform Q14693-4): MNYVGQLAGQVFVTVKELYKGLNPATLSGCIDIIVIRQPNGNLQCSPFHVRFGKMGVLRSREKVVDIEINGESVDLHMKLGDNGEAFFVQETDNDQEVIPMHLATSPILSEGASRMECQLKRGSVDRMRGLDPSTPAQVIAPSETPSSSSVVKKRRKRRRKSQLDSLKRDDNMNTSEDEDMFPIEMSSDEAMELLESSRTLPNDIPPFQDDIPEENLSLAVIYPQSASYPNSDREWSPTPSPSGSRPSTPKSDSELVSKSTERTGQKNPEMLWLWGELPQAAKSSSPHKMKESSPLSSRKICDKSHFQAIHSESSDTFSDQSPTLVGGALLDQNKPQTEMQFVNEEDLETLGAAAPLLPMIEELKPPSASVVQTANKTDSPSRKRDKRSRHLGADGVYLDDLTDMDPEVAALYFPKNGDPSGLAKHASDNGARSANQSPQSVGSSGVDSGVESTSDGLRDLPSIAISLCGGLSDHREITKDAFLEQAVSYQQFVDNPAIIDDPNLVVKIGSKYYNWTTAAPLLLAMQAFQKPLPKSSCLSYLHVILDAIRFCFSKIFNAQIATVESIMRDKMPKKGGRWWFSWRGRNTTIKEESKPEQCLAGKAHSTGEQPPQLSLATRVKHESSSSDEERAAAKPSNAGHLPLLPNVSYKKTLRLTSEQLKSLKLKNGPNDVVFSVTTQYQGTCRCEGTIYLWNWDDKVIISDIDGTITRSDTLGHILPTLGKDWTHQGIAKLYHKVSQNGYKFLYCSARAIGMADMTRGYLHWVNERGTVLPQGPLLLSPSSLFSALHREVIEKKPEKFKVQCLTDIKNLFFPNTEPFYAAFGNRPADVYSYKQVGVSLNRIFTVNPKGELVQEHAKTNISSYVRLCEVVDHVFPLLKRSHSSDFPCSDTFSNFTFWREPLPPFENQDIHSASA
Description: as §1, §2, §3

[3] = target: T3, human lipin 1β (Homo sapiens, UniProt Q14693); experiment: PAP assay, human lipin 1β; type: biochemical; conditions: unphosphorylated, from E. coli; PA 2.4 mol %
T3 construct: His6 (C); made in house; host or cells: E. coli Rosetta2(DE3)pLysS, plasmid pGH327 (pET-28b(+) derivative)
T3 sequence (Q14693 1-926 isoform Q14693-3): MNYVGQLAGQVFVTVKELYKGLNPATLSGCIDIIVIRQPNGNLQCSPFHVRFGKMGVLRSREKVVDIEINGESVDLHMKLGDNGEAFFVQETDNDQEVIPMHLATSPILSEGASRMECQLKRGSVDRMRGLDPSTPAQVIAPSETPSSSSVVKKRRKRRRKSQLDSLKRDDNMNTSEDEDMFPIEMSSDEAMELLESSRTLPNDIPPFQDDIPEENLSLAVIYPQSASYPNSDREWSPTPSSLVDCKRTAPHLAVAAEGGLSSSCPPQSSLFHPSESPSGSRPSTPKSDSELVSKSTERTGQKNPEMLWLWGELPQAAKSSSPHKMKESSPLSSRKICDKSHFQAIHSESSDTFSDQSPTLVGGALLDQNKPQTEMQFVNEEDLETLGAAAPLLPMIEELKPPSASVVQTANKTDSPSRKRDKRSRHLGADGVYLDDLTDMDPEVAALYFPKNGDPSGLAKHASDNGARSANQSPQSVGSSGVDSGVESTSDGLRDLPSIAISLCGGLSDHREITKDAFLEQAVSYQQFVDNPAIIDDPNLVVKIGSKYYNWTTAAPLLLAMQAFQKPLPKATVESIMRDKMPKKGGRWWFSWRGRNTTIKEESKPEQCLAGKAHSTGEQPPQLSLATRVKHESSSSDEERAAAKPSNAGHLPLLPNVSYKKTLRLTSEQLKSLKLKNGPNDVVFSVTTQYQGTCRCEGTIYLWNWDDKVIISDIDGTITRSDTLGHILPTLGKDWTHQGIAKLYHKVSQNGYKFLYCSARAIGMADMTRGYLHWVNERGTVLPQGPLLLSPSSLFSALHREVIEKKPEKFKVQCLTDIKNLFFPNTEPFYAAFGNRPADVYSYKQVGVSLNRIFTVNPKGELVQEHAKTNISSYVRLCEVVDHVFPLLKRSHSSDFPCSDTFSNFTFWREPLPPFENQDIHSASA
Description: as §1, §2, §3

[4] = test system: HepG2 cells; experiment: Lipid analysis (TLC, charring) in HepG2 cells; type: cell-based, human; conditions: 10 μM, 18 h
[5] = test system: pah1Δ mutant cells; type: cell-based, Saccharomyces cerevisiae
Description: (§4) The cell density was determined by measurement of A600 nm after a 48-h static incubation using a SpectraMax M2e microplate reader (Molecular Devices). […] The A600 nm readings were taken after 4 days of incubation.
For this experiment, we cultured the mutant in SC-0.2% glucose medium because of its growth defect in RPMI-0.2% glucose.
We reasoned that an overexpressed level of PAP activity would more readily rescue the inhibitory effect of the drug on the mutant growth.

[6] = test system: WT S. cerevisiae cells (RS453); experiment: Lipid analysis ([2-14C]acetate labeling, TLC) in S. cerevisiae; conditions: 163 μM, 12 h, SC-0.2% glucose
Description: Lipids were extracted ([97]) from ∼ 8 × 10^7 cells and analyzed by one-dimensional TLC with silica gel 60 plates using the solvent system containing hexane/diethyl ether/glacial acetic acid (40:10:1, v/v) ([98]). Radiolabeled lipids were visualized by phosphorimaging with a Storm 860 Molecular Imager (GE Healthcare) and quantified with ImageQuant software using a standard curve of [2–^14C]acetate. The amounts of TAG and phospholipids were normalized to total lipids on TLC plates.
The radiolabeling was performed in the SC medium owing to the difficulty of [2–^14C]acetate incorporation into cells grown in the RPMI medium.

[7] = test system: pah1Δ cells (SS1026) overexpressing Pah1 or Pah1-CC; type: cell-based, Saccharomyces cerevisiae
Description: as §4

Row | Structure (SMILES) | IC50 [1] | IC50 [2] | IC50 [3] | reduction in the TAG level [4] | growth of cells during the incubation period ([4]; vs DMSO vehicle) | effect on growth of pah1Δ mutant [5] | IC50 values for lipin 1 isoforms lower than those of propranolol ([1]; lipin 1 α, β and γ isoforms together) | decrease of TAG content [6] | increase of phospholipid content [6] | effect on growth of cells expressing Pah1 [7]
1 | CC(C)NCC(O)COc1cccc2ccccc12 (stereo not shown) [propranolol] | 226 µM | 227 µM | 271 µM | – | – | – | – | – | – | –
2 | CN[C@H]1CC[C@@H](c2ccc(Cl)c(Cl)c2)c2ccccc21 [sertraline] | 103 µM | 143 µM | 108 µM | 2 fold | did not differ from that of the control | severe reduction in growth | ~2 fold | 2.2 fold | 1.2 fold | mild inhibition
